According to patent US10385057B2, “Pyrazole compounds and methods of making and using same” (Lundbeck La Jolla Research Center, Inc., priority 2015, dated 2019):
pIC50: −log10 of the molar value.

How the values were obtained:
MAGL = biological target: T1, MAGL (Mus musculus, UniProt O35678); experiment: In vitro competitive activity-based protein profiling, mouse MAGL; assay type: biochemical; settings: for inhibition at 1 µM: read-out: MAGL % inh. 1 μM (mouse)
T1 construct: mouse brain membrane fraction or cell lysates for mouse assays; from tissue
T1 sequence (O35678 1-303): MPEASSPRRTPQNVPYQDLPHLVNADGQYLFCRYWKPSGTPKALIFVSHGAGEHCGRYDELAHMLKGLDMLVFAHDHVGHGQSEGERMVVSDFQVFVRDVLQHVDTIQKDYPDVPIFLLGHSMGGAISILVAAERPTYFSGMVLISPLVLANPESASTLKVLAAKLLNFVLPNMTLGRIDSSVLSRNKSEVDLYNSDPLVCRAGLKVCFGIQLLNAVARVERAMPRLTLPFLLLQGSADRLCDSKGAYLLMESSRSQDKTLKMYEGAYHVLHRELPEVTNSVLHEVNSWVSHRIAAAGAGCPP
Method in brief: (§1)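 Activity measured as fluorescent gel-band intensity of MAGL and FAAH after SDS-PAGE. Before labelling with FP-Rh or HT-01 (30 min, 37 °C), proteomes at 1.0 mg/mL (mouse brain membrane or lysates; human prefrontal cortex or cell membranes) were exposed to varying inhibitor concentrations for 30 min at 37 °C.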

FAAH = biological target: T2, FAAH (Mus musculus, UniProt O08914); experiment: In vitro competitive activity-based protein profiling, mouse FAAH; assay type: biochemical; settings: for inhibition at 1 µM: read-out: FAAH % inh. 1 μM (mouse)
T2 construct: mouse brain membrane fraction or cell lysates for mouse assays; from tissue
T2 sequence (O08914 1-579): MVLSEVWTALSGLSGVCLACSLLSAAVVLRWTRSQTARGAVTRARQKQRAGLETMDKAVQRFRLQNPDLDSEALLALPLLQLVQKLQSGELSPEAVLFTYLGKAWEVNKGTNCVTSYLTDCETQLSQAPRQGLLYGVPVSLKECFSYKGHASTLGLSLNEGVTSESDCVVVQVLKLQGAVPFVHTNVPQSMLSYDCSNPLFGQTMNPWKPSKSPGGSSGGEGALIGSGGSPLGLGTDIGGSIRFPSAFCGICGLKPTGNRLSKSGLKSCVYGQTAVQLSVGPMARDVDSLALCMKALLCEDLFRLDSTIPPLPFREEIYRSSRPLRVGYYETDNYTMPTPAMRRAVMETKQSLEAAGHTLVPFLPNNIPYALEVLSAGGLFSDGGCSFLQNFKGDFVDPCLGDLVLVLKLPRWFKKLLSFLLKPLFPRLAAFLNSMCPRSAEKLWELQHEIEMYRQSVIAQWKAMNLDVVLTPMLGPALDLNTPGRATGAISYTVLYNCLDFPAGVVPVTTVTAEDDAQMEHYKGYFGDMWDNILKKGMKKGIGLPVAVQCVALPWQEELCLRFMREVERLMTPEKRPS
Method in brief: as §1

inhibition at 1 µM (MAGL) [%] | inhibition at 1 µM (FAAH) [%] | pIC50 (MAGL) | pIC50 (FAAH) | SMILES
≥ 75 | 0 to 25 |  |  | CN(Cc1ccccc1C(F)(F)F)[C@@H]1C[C@@H]2CN(C(=O)n3cc(C(=O)N4CCN(C5CC5)CC4)cn3)C[C@@H]2C1 [Example 94, (4-cyclopropylpiperazin-1-yl)(1-(cis-5-(methyl(2-(trifluoromethyl)benzyl)amino)octahydrocyclopenta[c]pyrrole-2-carbonyl)-1H-pyrazol-4-yl)methanone]
≥ 75 | 25 to 50 |  |  | CN(Cc1ccc(C(F)(F)F)cc1)[C@@H]1C[C@@H]2CN(C(=O)n3cc(C(=O)N4CCN(C5CC5)CC4)cn3)C[C@@H]2C1 [Example 98, (4-cyclopropylpiperazin-1-yl)(1-(cis-5-(methyl(4-(trifluoromethyl)benzyl)amino)octahydrocyclopenta[c]pyrrole-2-carbonyl)-1H-pyrazol-4-yl)methanone]
≥ 75 | ≥ 75 | ≥ 7.00 | ≥ 7.00 | O=C(N1CC2CN(Cc3ccc(Cl)cc3N3CCOCC3)CC2C1)n1cc(Cl)cn1 (stereo not drawn) [Example 99, (4-chloro-1H-pyrazol-1-yl)(5-(4-chloro-2-morpholinobenzyl)hexahydropyrrolo[3,4-c]pyrrol-2(1H)-yl)methanone]
≥ 75 | ≥ 75 | ≥ 7.00 | ≥ 7.00 | O=C(N1CC2CN(Cc3ccc(F)cc3N3CCCC3)CC2C1)n1cc(Cl)cn1 (stereo not drawn) [Example 103, (4-chloro-1H-pyrazol-1-yl)(5-(4-fluoro-2-(pyrrolidin-1-yl)benzyl)hexahydropyrrolo[3,4-c]pyrrol-2(1H)-yl)methanone]
≥ 75 | ≥ 75 |  |  | CC1COCCN1c1cc(Cl)ccc1CN1CC2CN(C(=O)n3cc(Cl)cn3)CC2C1 (stereo not drawn) [Example 105, (4-chloro-1H-pyrazol-1-yl)(5-(4-chloro-2-(3-methylmorpholino)benzyl)hexahydropyrrolo[3,4-c]pyrrol-2(1H)-yl)methanone]
≥ 75 | 0 to 25 | ≥ 7.00 | 5.00 to 6.00 | CC(=O)N1CCN(c2cc(C(C)C)ccc2CN2CC3CN(C(=O)n4cc(Cl)cn4)CC3C2)CC1 (stereo not drawn) [Example 109, 1-(4-(2-((5-(4-chloro-1H-pyrazole-1-carbonyl)hexahydropyrrolo[3,4-c]pyrrol-2(1H)-yl)methyl)-5-isopropylphenyl)piperazin-1-yl)ethan-1-one]
≥ 75 | ≥ 75 | 6.00 to 7.00 | ≥ 7.00 | O=C(N1CCC2(CCN(Cc3cccc(Cl)c3)C2)C1)n1cc(Cl)cn1 (stereo not drawn) [Example 113, (4-chloro-1H-pyrazol-1-yl)(7-(3-chlorobenzyl)-2,7-diazaspiro[4.4]nonan-2-yl)methanone]
50 to 75 | ≥ 75 |  |  | O=C(N1CCC2(CCN(Cc3ccccc3)C2)C1)n1cc(Cl)cn1 (stereo not drawn) [Example 114, (7-benzyl-2,7-diazaspiro[4.4]nonan-2-yl)(4-chloro-1H-pyrazol-1-yl)methanone]

Continued, compound first:

SMILES | inhibition at 1 µM (MAGL) [%] | inhibition at 1 µM (FAAH) [%] | pIC50 (MAGL) | pIC50 (FAAH)
CN(Cc1ccccc1Cl)[C@H]1C[C@@H]2CN(C(=O)n3cc(C(=O)N4CCN(C5CC5)CC4)cn3)C[C@@H]2C1 [Example 95, (trans-5-((2-chlorobenzyl)(methyl)amino)hexahydrocyclopenta[c]pyrrol-2(1H)-yl)(4-(4-cyclopropylpiperazine-1-carbonyl)-1H-pyrazol-1-yl)methanone] | ≥ 75 | 0 to 25 |  | 
CN(Cc1ccc(C(F)(F)F)cc1)[C@@H]1C[C@@H]2CN(C(=O)n3cc(C(=O)N4CCCC4)cn3)C[C@@H]2C1 [Example 97, (cis-5-(methyl(4-(trifluoromethyl)benzyl)amino)hexahydrocyclopenta[c]pyrrol-2(1H)-yl)(4-(pyrrolidine-1-carbonyl)-1H-pyrazol-1-yl)methanone] | 50 to 75 | ≥ 75 |  | 
O=C(N1CC2CN(Cc3ccc(F)cc3N3CCOCC3)CC2C1)n1cc(Cl)cn1 (stereo not drawn) [Example 100, (4-chloro-1H-pyrazol-1-yl)(5-(4-fluoro-2-morpholinobenzyl)hexahydropyrrolo[3,4-c]pyrrol-2(1H)-yl)methanone] | ≥ 75 | ≥ 75 | ≥ 7.00 | 6.00 to 7.00
O=C(N1CC2CN(Cc3ccc(Cl)cc3N3CCCC3)CC2C1)n1cc(Cl)cn1 (stereo not drawn) [Example 101, (4-chloro-1H-pyrazol-1-yl)(5-(4-chloro-2-(pyrrolidin-1-yl)benzyl)hexahydropyrrolo[3,4-c]pyrrol-2(1H)-yl)methanone] | ≥ 75 | ≥ 75 | ≥ 7.00 | 6.00 to 7.00
CC(=O)N1CCN(c2cc(Cl)ccc2CN2CC3CN(C(=O)n4cc(Cl)cn4)CC3C2)CC1 (stereo not drawn) [Example 102, 1-(4-(5-chloro-2-((5-(4-chloro-1H-pyrazole-1-carbonyl)hexahydropyrrolo[3,4-c]pyrrol-2(1H)-yl)methyl)phenyl)piperazin-1-yl)ethan-1-one] | ≥ 75 | ≥ 75 |  | 
CC1COCCN1c1cc(F)ccc1CN1CC2CN(C(=O)n3cc(Cl)cn3)CC2C1 (stereo not drawn) [Example 104, (4-chloro-1H-pyrazol-1-yl)(5-(4-fluoro-2-(3-methylmorpholino)benzyl)hexahydropyrrolo[3,4-c]pyrrol-2(1H)-yl)methanone] | ≥ 75 | ≥ 75 |  | 
CC(C)c1ccc(CN2CC3CN(C(=O)n4cc(Cl)cn4)CC3C2)c(N2CCOCC2)c1 (stereo not drawn) [Example 106, (4-chloro-1H-pyrazol-1-yl)(5-(4-isopropyl-2-morpholinobenzyl)hexahydropyrrolo[3,4-c]pyrrol-2(1H)-yl)methanone] | ≥ 75 | 50 to 75 | ≥ 7.00 | 5.00 to 6.00
CC(=O)N1CCN(c2cc(F)ccc2CN2CC3CN(C(=O)n4cc(Cl)cn4)CC3C2)CC1 (stereo not drawn) [Example 107, 1-(4-(2-((5-(4-chloro-1H-pyrazole-1-carbonyl)hexahydropyrrolo[3,4-c]pyrrol-2(1H)-yl)methyl)-5-fluorophenyl)piperazin-1-yl)ethan-1-one] | ≥ 75 | ≥ 75 | ≥ 7.00 | 6.00 to 7.00
CC(C)c1ccc(CN2CC3CN(C(=O)n4cc(Cl)cn4)CC3C2)c(N2CCCC2)c1 (stereo not drawn) [Example 108, (4-chloro-1H-pyrazol-1-yl)(5-(4-isopropyl-2-(pyrrolidin-1-yl)benzyl)hexahydropyrrolo[3,4-c]pyrrol-2(1H)-yl)methanone] | ≥ 75 | 50 to 75 | 6.00 to 7.00 | 5.00 to 6.00
O=C(N1CC2CN(Cc3ccc(C(F)(F)F)cc3N3CCCC3)CC2C1)n1cc(Cl)cn1 (stereo not drawn) [Example 110, (4-chloro-1H-pyrazol-1-yl)(5-(2-(pyrrolidin-1-yl)-4-(trifluoromethyl)benzyl)hexahydropyrrolo[3,4-c]pyrrol-2(1H)-yl)methanone] | ≥ 75 | ≥ 75 | ≥ 7.00 | 6.00 to 7.00
O=C(N1CC2CN(Cc3ccc(Cl)cc3N3CCC4(CCOCC4)C3)CC2C1)n1cc(Cl)cn1 (stereo not drawn) [Example 111, (4-chloro-1H-pyrazol-1-yl)(5-(4-chloro-2-(8-oxa-2-azaspiro[4.5]decan-2-yl)benzyl)hexahydropyrrolo[3,4-c]pyrrol-2(1H)-yl)methanone] | ≥ 75 | ≥ 75 | ≥ 7.00 | 5.00 to 6.00
